Data reported in patent US11254686B1 (Corvus Pharmaceuticals, Inc., priority 2017, dated 2022).

Columns and labels:
[1] = target: adenosine A2B receptor (Homo sapiens (Human), UniProt P29275); assay: Adenosine receptor activity assay (Table 1), A2B activity; assay type: biochemical; settings: for Ratio: A2A activity to A2B activity (A2A/A2B); for IC50: read-out: Ave A2B cAMP IC50
[2] = target: adenosine A2A receptor (Homo sapiens (Human), UniProt P29274); assay: Adenosine receptor activity assay (Table 1), A2A activity; assay type: biochemical; settings: read-out: Ave A2A cAMP IC50
adenosine A2A receptor, sequence (P29274 whole entry): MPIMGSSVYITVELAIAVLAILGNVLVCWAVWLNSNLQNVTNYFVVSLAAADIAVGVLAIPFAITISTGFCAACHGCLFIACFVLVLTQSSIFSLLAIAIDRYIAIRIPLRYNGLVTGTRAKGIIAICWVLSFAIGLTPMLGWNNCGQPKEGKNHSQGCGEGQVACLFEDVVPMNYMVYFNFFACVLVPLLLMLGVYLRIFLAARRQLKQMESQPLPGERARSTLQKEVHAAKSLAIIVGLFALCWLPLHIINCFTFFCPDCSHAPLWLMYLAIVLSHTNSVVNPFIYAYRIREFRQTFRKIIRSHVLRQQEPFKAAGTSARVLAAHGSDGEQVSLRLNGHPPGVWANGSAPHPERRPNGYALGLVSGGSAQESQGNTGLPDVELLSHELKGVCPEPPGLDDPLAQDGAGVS

adenosine A2B receptor, sequence (P29275 whole entry): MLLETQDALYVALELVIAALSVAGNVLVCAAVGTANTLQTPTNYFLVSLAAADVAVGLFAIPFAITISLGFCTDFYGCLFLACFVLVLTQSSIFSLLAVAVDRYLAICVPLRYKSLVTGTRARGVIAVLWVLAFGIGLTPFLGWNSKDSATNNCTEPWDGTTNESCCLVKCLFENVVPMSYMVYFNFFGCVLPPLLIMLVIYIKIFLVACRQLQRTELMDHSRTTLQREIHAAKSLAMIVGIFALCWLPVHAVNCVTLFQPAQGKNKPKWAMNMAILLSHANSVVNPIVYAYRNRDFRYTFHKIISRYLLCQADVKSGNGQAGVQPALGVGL

Row | Compound | Ratio [1] | IC50 [1] | IC50 [2]
1 | C[C@H](Nc1nc(C(=O)NCCN2CCCC2)c2sccc2n1)c1ccccn1 [Example Z356, (S)-2-((1-(Pyridin-2-yl)ethyl)amino)-N-(2-(pyrrolidin-1-yl)ethyl)thieno[3,2-d]pyrimidine-4-carboxamide] | 3.31 | > 500 nM | > 500 nM
2 | C[C@H](Nc1nc(C(=O)NCCN2CCCC2)c2sccc2n1)c1cncc(F)c1 [Example Z357, (S)-2-((1-(5-Fluoropyridin-3-yl)ethyl)amino)-N-(2-(pyrrolidin-1-yl)ethyl)thieno[3,2-d]pyrimidine-4-carboxamide] | 3.03 | > 500 nM | > 500 nM
3 | CNC1CN(C(=O)c2nc(NCc3cncc(F)c3)nc3ccsc23)C1 [Example Z358, (2-(((5-Fluoropyridin-3-yl)methyl)amino)thieno[3,2-d]pyrimidin-4-yl)(3-(methylamino)azetidin-1-yl)methanone] | 69.69 | 100 to 500 nM | > 500 nM
4 | O=C(c1nc(NCCc2ccc(O)cc2)nc2ccsc12)N1CCCC1 [Example Z359, (2-((4-Hydroxyphenethyl)amino)thieno[3,2-d]pyrimidin-4-yl)(pyrrolidin-1-yl)methanone] | 2.57 | 100 to 500 nM | 100 to 500 nM
5 | N[C@H]1CCN(C(=O)c2nc(NCc3cncc(F)c3)nc3ccsc23)C1 [Example Z360, (S)-(3-Aminopyrrolidin-1-yl)(2-(((5-fluoropyridin-3-yl)methyl)amino)thieno[3,2-d]pyrimidin-4-yl)methanone] | 72.24 | 100 to 500 nM | > 500 nM
6 | N[C@@H]1CCN(C(=O)c2nc(NCc3cncc(F)c3)nc3ccsc23)C1 [Example Z361, (R)-(3-Aminopyrrolidin-1-yl)(2-(((5-fluoropyridin-3-yl)methyl)amino)thieno[3,2-d]pyrimidin-4-yl)methanone] | 28.33 | 100 to 500 nM | > 500 nM
7 | C[C@H](Nc1nc(C(=O)N2CC[C@H](N)C2)c2sccc2n1)c1ccccn1 [Example Z363, ((S)-3-Aminopyrrolidin-1-yl)(2-(((S)-1-(pyridin-2-yl)ethyl)amino)thieno[3,2-d]pyrimidin-4-yl)methanone] | 23.53 | 100 to 500 nM | > 500 nM
8 | C[C@H](Nc1nc(C(=O)N2CC[C@@H](N)C2)c2sccc2n1)c1ccccn1 [Example Z364, ((R)-3-Aminopyrrolidin-1-yl)(2-(((S)-1-(pyridin-2-yl)ethyl)amino)thieno[3,2-d]pyrimidin-4-yl)methanone] | 11.16 | 100 to 500 nM | > 500 nM

Results, then the compound that gave them:

Row | Ratio [1] | IC50 [1] | IC50 [2] | Compound
9 | 6.35 | 10 to 50 nM | 100 to 500 nM | C[C@H](Nc1nc(C(=O)N2CCC(C(=O)OC(C)(C)C)C2)c2sccc2n1)c1cncc(F)c1 (stereo partly drawn) [Example Z354, tert-Butyl 1-(2-(((S)-1-(5-fluoropyridin-3-yl)ethyl)amino)thieno[3,2-d]pyrimidine-4-carbonyl)pyrrolidine-3-carboxylate]
10 | 1.96 | 100 to 500 nM | > 500 nM | C[C@H](Nc1nc(C(=O)N2CCC(C(=O)OC(C)(C)C)C2)c2sccc2n1)c1ccccn1 (stereo partly drawn) [Example Z355, tert-Butyl 1-(2-(((S)-1-(pyridin-2-yl)ethyl)amino)thieno[3,2-d]pyrimidine-4-carbonyl)pyrrolidine-3-carboxylate]
11 | 95.57 | 10 to 50 nM | > 500 nM | C[C@H](Nc1nc(C(=O)N2CC[C@H](N)C2)c2sccc2n1)c1cncc(F)c1 [Example Z362, ((S)-3-Aminopyrrolidin-1-yl)(2-(((S)-1-(5-fluoropyridin-3-yl)ethyl)amino)thieno[3,2-d]pyrimidin-4-yl)methanone]
12 | 2.19 | 10 to 50 nM | 50 to 100 nM | C[C@H](Nc1nc(C(=O)NCCC2CCN(C(=O)OC(C)(C)C)C2)c2sccc2n1)c1cncc(F)c1 (stereo partly drawn) [Example Z365, tert-Butyl 3-(2-(2-(((S)-1-(5-fluoropyridin-3-yl)ethyl)amino)thieno[3,2-d]pyrimidine-4-carboxamido)ethyl)pyrrolidine-1-carboxylate]
